Where a SMILES comes first, the peptide text is derived from it. Bridges are numbered along the chain shown (N, C = ends). [ ]: non-standard residue; d: D form. pGlu = O=C1CC[C@@H](C(=O)O)N1

The test system of data set [1] is DFTD4 cells. In words: Cell cycle analysis (PI, flow cytometry). The note with it: 50 μg/mL, 24 h, mean ± SEM, three independent experiments. In kind it is cell-based, Tasmanian devil (Sarcophilus harrisii). The procedure:
DFTD4 cells were synchronised by removing serum from the medium for ~24 h. Cells were then transferred into medium containing serum and treated with AgGom or HiGom at 50 µg/mL for 24 h. Cells were detached mechanically, washed with PBS and fixed with 70% ethanol for ~1 h at 4 °C. Ethanol was removed by centrifugation (453 g for 5 min) and cells were washed with PBS. Cells were treated with 5 µL of 10 µg/mL ribonuclease A to remove RNA contamination and further incubated for 1 h at 37 °C to allow release of low-molecular weight DNA. Cell pellets were stained with 10 µL of propidium iodide (PI) (1 mg/ml) and analysed at a maximum emission of 605 nm using a LSR Fortessa 5 analyser (BD Biosciences, San Diego, CA, US). Approximately 10,000 events were recorded and data were analysed using FlowJo software v10.06 (FlowJo, US).
(In general: A flow cytometer gives signals particle by particle.)

The subject of data set [2] is DFTD4 cells. In words: Annexin V-FITC/PI apoptosis and necrosis. In kind it is cell-based, Tasmanian devil (Sarcophilus harrisii). Conditions: 50 µg/mL, 24 h. The procedure: Apoptosis in DFTD4 cells treated with AgGom or HiGom was measured using an Annexin V-FITC Apoptosis detection kit in combination with a Canto II high-throughput fluorescence-activated cell sorter (BD Biosciences, USA). Briefly, cells were seeded at a density of 100,000 cells/well in a round-bottom 96-well plate and treated with 50 µg/mL AgGom or HiGom for 24 h. The cells were collected mechanically, washed twice with PBS and once with wash buffer provided by the manufacturer. Cells were stained simultaneously with FITC-labelled annexin V and PI for 30 min in the dark and at room temperature before being analysed.

For data set [3], the system named is DFTD4 cells. In words: Mitochondrial membrane potential (Rhodamine 123). In kind it is cell-based, Tasmanian devil (Sarcophilus harrisii). The note with it: 50 µg/mL, 24 h, vs. vehicle. How it is done: We measured the mitochondrial membrane potential (MMP) using Rhodamine 123 (Rhod-123) (Sigma-Aldrich, Australia), a cationic dye that is localised in mitochondria. Loss-of-MMP results in loss-of-Rhod-123 fluorescence. Approximately 1 × 10^6 DFTD4 cells treated with AgGom or HiGom at 50 µg/mL for 24 h were collected and resuspended in 0.1 ml of culture medium, stained with 10 µg/mL Rhod-123 for 30 min, and then washed with PBS. The intracellular concentration of Rho123 was determined immediately after by flow cytometry (BD Biosciences, USA) using an excitation wavelength of 488 nm. The data were analysed using FlowJo v10.06 (FlowJo, USA).

Data set [4] concerns DFTD4 cells. In words: Reactive oxygen species (Carboxy-H2DCFDA, flow cytometry). Format: cell-based, Tasmanian devil (Sarcophilus harrisii). Conditions: 50 μg/mL, 24 h, vs. untreated. How it is done:
An Amplex Red Hydrogen Peroxidase assay kit (Invitrogen, Australia) was used to measure reactive oxygen species (ROS) generation in DFTD4 cells. A fluorescence probe that detects intracellular H2O2, Carboxy-H2DCFDA, was added 30 min prior to collecting cells to measure ROS production in DFTD4 cells that were previously treated with gomesin peptides at 50 µg/mL for 24 h. Fluorescent cells were washed twice with PBS prior to analysis on a FACSCalibur flow cytometer (BD Biosciences, USA) using excitation and emission wavelengths of 492 nm and 517 nm, respectively. Approximately 10,000 events were recorded per sample and the readout was analysed using FlowJo software v10.06 (FlowJo, USA).

The subject of data set [5] is FIBS cells. The data set is described as follows: MTT cell viability, non-transformed fibroblasts (FIBS). In kind it is cell-based, Tasmanian devil (Sarcophilus harrisii). Conditions: 48 h; for deleterious effects on FIBS viability: 50 µg/mL. The text has this:
(§1) All DFTD (DFTD1, DFTD2, and DFTD4) and fibroblast (FIBS) cell lines were obtained from the Department of Primary Industries, Parks, Water, and Environment, State Government of Tasmania (DPIPWE) and were established as part of management plan and adhere to a standard operating practice. The DFTD1 cell line with catalogue number 3287 is derived from the tumour from a female devil (tag number: 06/2887) collected at St Marys, Eastern Tasmania in 2006. DFTD2 cell line with catalogue number 8961 was developed from a tumour from a male devil (tag number: 12/0625) collected at Kempton, Northern Tasmania in 2012. The DFTD4 cell line with catalogue number 4099 was developed from the tumour of a male devil (tag number: 07/0192) that was collected at Freycinet, east coast of Tasmania in 2007 and Fibroblasts cells (FIBS) with catalogue number 497 were obtained from a healthy devil male pup (tag number: 05/0962) held at Mount Pleasant, Southeastern of Tasmania in 2005.
(§2) Devil Facial Tumor cancer cell lines, and the control Tasmanian Devil fibroblast (FIBS) healthy cell line were maintained in a humidified incubator at 35 °C and 5% CO2. The DFTD cell lines were cultured in RPMI-1640 medium supplemented with 10% FCS, and 2 mM Glutamax. The FIBS was grown in GIBCO AmnioMAX-C100 Basal Medium liquid, containing AmnioMAX-C100 supplement. Penicillin/streptomycin (PS) (100 U/ml each) was added to both media. The cells were passaged at ~90% confluency. Functional studies were performed with passages up to 20. All cell lines were mycoplasma free.
(§3) Cell viability as an indicator of the number of viable and proliferative cells was measured by MTT according to the protocol of the manufacturer (Sigma-Aldrich, Australia). In brief, 8000 DFTD and 5000 FIBS cells/well were seeded in a 96-flat adherent microtiter well plate for 24 h to allow cell adhesion. Gomesin peptides and/or analogues were then added to the plates to measure MTT reduction. Plates were measured after 48 h at 540 nm absorbance in a microplate reader (BIOTEK PowerWave XS, USA). 0.1% SDS was used as a positive control (100% toxicity). A row of untreated cells was used to define 100% viability and blank wells containing only media were used to extract background. The concentration of gomesin peptides causing 50% inhibition (EC50) in DFTD and FIBS cells was determined using GraphPad Prism Software (Graphpad Inc, USA).

Data set [6] concerns DFTD4 cells. The data set is described as follows: MTT cell viability, DFTD4 cells. In kind it is cell-based, Tasmanian devil (Sarcophilus harrisii). The note with it: for cell viability / anti-proliferative activity in DFTD4 cells: 50 µg/mL.
From the text: as §1, §2, §3

In data set [7] the test system is DFTD4 cells. The data set is described as follows: qRT-PCR of cell cycle check-point, pro-survival and apoptosis genes. In kind it is cell-based, Tasmanian devil (Sarcophilus harrisii). Conditions: 50 μg/mL, vs. vehicle. How it is done:
Total RNA was extracted from both untreated (control) and gomesin-treated DFTD4 cells using an RNeasy kit (Qiagen, Australia) and 1 µg was reverse-transcribed into cDNA using SensiFast (Bioline, UK). Quantitative real time-PCR (qRT-PCR) to quantitate mRNA expression was performed on a LightCycler Instrument (Roche Molecular Biochemicals, Australia) with Tasmanian devil 18S used as the reference (housekeeper) gene. All primers are listed in Supplementary.
A general note: Real-time PCR tracks product formation cycle by cycle.

For data set [8], the system named is cultured DFTD cells. Conditions: cited from earlier work. An excerpt: In this pioneer study, we examined for the first time, in our knowledge, the therapeutic potential of spider-venom peptides against DFTD. Our study provides a molecular and mechanistic characterisation of the mode of action of gomesin peptides to prevent the proliferation of DFTD cells. This is especially relevant since the Tasmanian devil population has declined by at least 80%[1] and currently the therapeutic strategies to slow down the progression of DFTD in infective-devils have been ineffective. That was the case of vincristine, a chemotherapeutic agent used in human and veterinary medici ...

The test system of data set [9] is DFTD1 cells. In words: MTT cell viability, DFTD1 cells. In kind it is cell-based, Tasmanian devil (Sarcophilus harrisii). Conditions: Table 3, 48 h.
From the text: as §1, with “2005. […]” for “2005.”
(§4) Cell viability as an indicator of the number of viable and proliferative cells was measured by MTT according to the protocol of the manufacturer (Sigma-Aldrich, Australia). […] Plates were measured after 48 h at 540 nm absorbance in a microplate reader (BIOTEK PowerWave XS, USA). […]

Data set [10] deals with DFTD2 cells. The data set is described as follows: MTT cell viability, DFTD2 cells. The note with it: Table 3, 48 h. Format: cell-based, Tasmanian devil (Sarcophilus harrisii).
From the text: as §1, with “2005. […]” for “2005.”
as §4

In [1], `CC(C)C[C@@H]1NC(=O)[C@H](CCCNC(=N)N)NC(=O)[C@H](CCCNC(=N)N)NC(=O)[C@@H](NC(=O)[C@@H]2CCC(=O)N2)CSSC[C@@H](C(=O)N[C@@H](CCCNC(=N)N)C(=O)NCC(=O)N[C@@H](CCCNC(=N)N)C(N)=O)NC(=O)[C@H](Cc2ccc(O)cc2)NC(=O)[C@H]([C@@H](C)O)NC(=O)[C@H](C(C)C)NC(=O)[C@@H]2CSSC[C@H](NC1=O)C(=O)N[C@@H](Cc1ccc(O)cc1)C(=O)N[C@@H](CCCNC(=N)N)C(=O)N[C@@H](CC(N)=O)C(=O)N[C@@H](CCCNC(=N)N)C(=O)N2` [HiGom] ([pGlu]CRRLCYRNRCVTYCRGR-NH2; disulfide 2-15, 6-11) came in with a G0/G1 of 47.2 ± 0.66, a G2/M of 13.3 ± 0.7 and a S-phase of 13.7 ± 1.9. Besides, in data set [2], the “early or late apoptotic cell ratio” value is reported as “not altered” and the “necrosis of DFTD cells compared to untreated cells” value is given as “significantly increased necrosis”. Besides, in data set [3], the MMP result is “significant decrease in MMP”. In data set [4], the ROS result is “significant increase in ROS”. Also, in [5], the “deleterious effects on FIBS viability” value was “not statistically significant”. Also, the “effects on FIBS viability” value in data set [5] (0.5 to 25 µg/mL) is reported as “negligible effects”. In addition, in data set [6] (48 h), the “cell viability / anti-proliferative activity in DFTD4 cells” value is recorded as “dramatically reduced the cell viability”. For the same compound, the “anti-proliferative / cytotoxic activity compared with AgGom” value in data set [6] (DFTD cell lines (DFTD1, DFTD2, DFTD4), 48 h) is given as “more cytotoxic than AgGom”. In addition, in data set [7], the “expression of BCL2” value was “enhanced”, the “expression of p53” value was “enhanced” and the p27 expression result is on record as “elevated”.
Turning to `CC(C)Cn1cnc2c(N)nc3ccccc3c21` [imiquimod], in [8], the “apoptotic activity against cultured DFTD cells” value was “displayed apoptotic activity”.
In general, EC50 refers to the midpoint of the concentration-response curve. Read a high EC50 as weaker potency. Turning to “ZCRRLCYKQRCVTYCRGR-NH2 (bicyclic or more) [AgGom, 18-residue spider peptide gomesin first isolated from hemocytes of Acanthoscurria gomesiana]”, in data set [1], the G0/G1 turned out to be 39.9 ± 1.32, the G2/M amounted to 14.3 ± 0.9 and the S-phase amounted to 11.47 ± 1.35. In data set [2], the “early or late apoptotic cell ratio” value is reported as “not altered” and the “necrosis of DFTD cells compared to untreated cells” value was “significantly increased necrosis”. Further, the “EC50 (µg/mL) DFTD1” value in [9] is 20.4 µg/mL. For the same compound, the “EC50 (µg/mL) DFTD2” value in data set [10] was found to be 12.29 µg/mL. The MMP entry in [3] is given as “significant decrease in MMP”. In addition, the ROS entry in data set [4] is “significant increase in ROS”. Further, the “deleterious effects on FIBS viability” value in data set [5] is given as “not statistically significant”. For the same compound, the “cell viability / anti-proliferative activity in DFTD4 cells” value in data set [6] (48 h) is given as “dramatically reduced the cell viability”. The EC50 in [6] (DFTD4 cells, 48 h exposure, three independent experiments in triplicate) was 25.25 µg/mL. In data set [7], the “expression of BCL2” value is “enhanced”, the “expression of p21” value is recorded as “induction”, the “expression of p53” value is recorded as “enhanced” and the “expression of pro-survival gene MCL1” value is given as “induction”. The p27 expression result in [7] is “statistically significant increase”.

Source of the values: PMC5841354, “Gomesin peptides prevent proliferation and lead to the cell death of devil facial tumour disease cells” (Cell Death Discovery, 2018).
